Results as given in patent publication US11052043B2, “Sustained-release injectable formulation” (YISSUM RESEARCH DEVELOPMENT COMPANY OF THE HEBREW …, priority 2011, dated 2021).
In brackets after ≈: the same amount, converted by molar mass.

Experiments:
[1] = cited from earlier work
[2] = Minimum inhibitory concentration (MIC) of amoxicillin; assay type: cell-based; settings: in vitro MIC multiplied by a factor of 4
[3] = cited from earlier work; remark: listed apart in the source

Q: With `CC1(C)S[C@@H]2[C@H](NC(=O)[C@H](N)c3ccc(O)cc3)C(=O)N2[C@H]1C(=O)O` [amoxicillin] as the compound, how does the “MIC value determined in vitro” value [1] read?
A: 0.1 µg/mL (≈ 0.274 µM)

Q: What about the “in vivo minimum inhibitory concentration (MIC) as set” value [2] of the same compound?
A: 0.4 µg/mL

Q: For `CCN1CCN(c2cc3c(cc2F)c(=O)c(C(=O)O)cn3C2CC2)CC1` [enrofloxacin], which solubility of enrofloxacin ([3]; 25° C.) is on record?
A: 0.25 % (w/v)

Q: Which solubility of cefdinir ([3]; 30° C.) does the source give for `C=CC1=C(C(=O)O)N2C(=O)[C@@H](NC(=O)/C(=N\O)c3csc(N)n3)[C@H]2SC1` [cefdinir] here?
A: 0.43 % (w/v)
